The values that follow come from patent publication US20130065914A1, “HALOGEN OR CYANO SUBSTITUTED THIENO [2,3-D]PYRIMIDINES HAVING MNK1/MNK2 INHIBITING ACTIVITY FOR PHARMACEUTICAL COMPOSITIONS” (BOEHRINGER INGELHEIM INTERNATIONAL GMBH, priority 2010, published 2013).

Structures can show the parent of a compound that is named as a salt.

The target of the first test is T1, human Mnk2a (Homo sapiens, UniProt Q9HBH9).
T1 construct: the open reading frames of human Mnk1 and Mnk2a were amplified from cDNA; made in house; host or cells: E. coli BL21
T1 sequence (Q9HBH9 whole entry): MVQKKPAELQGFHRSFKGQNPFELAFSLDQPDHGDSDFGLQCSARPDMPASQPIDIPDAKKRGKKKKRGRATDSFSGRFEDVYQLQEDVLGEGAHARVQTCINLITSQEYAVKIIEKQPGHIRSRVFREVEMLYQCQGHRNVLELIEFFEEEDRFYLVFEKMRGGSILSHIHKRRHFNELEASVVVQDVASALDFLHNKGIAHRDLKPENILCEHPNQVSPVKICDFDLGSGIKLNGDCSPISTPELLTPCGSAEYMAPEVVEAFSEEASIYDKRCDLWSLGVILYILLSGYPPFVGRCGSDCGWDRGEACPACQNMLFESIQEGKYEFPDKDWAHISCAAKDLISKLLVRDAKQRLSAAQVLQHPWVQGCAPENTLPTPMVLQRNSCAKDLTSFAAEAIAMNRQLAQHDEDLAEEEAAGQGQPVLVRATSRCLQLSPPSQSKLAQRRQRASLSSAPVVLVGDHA
Kind of test: Mnk2a in vitro kinase assay (indirect fluorescence polarization). It is filed as biochemical. As to conditions: assay of example 2a; 20 μM ATP, 2.5 nM pre-activated Mnk2a; read-out: MNK2 Inhibition (IC50). The protocol: Assay principle: Inhibitory potency of compounds against Mnk1, Mnk2a and other kinases was assessed with assays based on a format known to those skilled in the art as the indirect (competitive) fluorescence polarization. The assay detection system comprises a small fluorophore-labeled phospho-peptide (termed ligand) bound to a phospho-specific antibody. The product generated by the kinase reaction competes with the ligand for antibody binding. Based on the larger molecular volume of the bound ligand, which results in a lower rotation rate in solution, its emitted light has a higher degree of polarization than the one from the free ligand.
As a source of enzyme, human Mnk1 and human Mnk2a were expressed as GST fusion proteins in E. coli, purified to >80% homogeneity by glutathione affinity chromatography and activated in vitro with pre-activated ERK2. In brief, the open reading frames of human Mnk1 and Mnk2a were amplified from cDNA using the forward/reverse primer pairs
(utilized restriction sites underlined), respectively, and cloned into the BamHI and SalI sites of the vector pGEX-4T1 (Amersham, Sweden, cat. no. 27-4580-01). These constructs allow prokaryotic expression of Mnk1 or Mnk2a as fusion protein with a N-terminal glutathione S-transferase (GST) tag, referred to as GST-Mnk1 or GST-Mnk2a. The following expression and purification procedure was identical for GST-Mnk1 and GST-Mnk2a, referring in general to GST-Mnk, when not distinguishing between the two isoforms. Expression of GST-Mnk was in E. coli BL21 (Merck Biosciences, Germany, cat. no. 69449). Cells were grown in LB-Bouillon (Merck, Germany, cat. no. 1.10285) supplemented with 100 μg/ml ampicillin (Sigma, Germany, cat. no. A9518) at 37° C. When the culture had reached a density corresponding to an A600 of 0.8, an equal volume of ice cold LB/ampicillin was added, the culture transferred to 25° C. and induced for 4 h with 1 mM isopropyl thiogalactoside (IPTG, Roth, Germany, cat. no. 2316.4). Cells harvested by centrifugation were resuspended in 10 ml lysis buffer (50 mM tris(hydroxymethyl)aminomethane hydrochloride (Tris/HCl, Sigma, Germany, cat. no. T5941) pH 7.5, 300 mM sodium chloride (NaCl, Sigma, Germany, cat. no. S7653), 5% (w/v) glycerol (Sigma, Germany, cat. no. G5516), 3 mM DTT dithiotreitol (DTT, Sigma, Germany, cat. no. D9779)) per gram wet weight cell pellet. Lysates were prepared by disruption of cells with a sonifier and subsequent clearing by centrifugation at 38000 g for 45 min at 4° C.
The lysate was applied to a GSTPrep FF 16/10 column (Amersham, Sweden, cat. no. 17-5234-01) equilibrated with lysis buffer. Removal of unbound material was with 3 column volumes (CV) lysis buffer. Elution was with 2 CV of elution buffer (50 mM Tris/HCl pH 7.5, 300 mM NaCl, 5% (w/v) glycerol, 20 mM glutathione (Sigma, Germany, cat. no. G4251)). Peak fractions were pooled and the protein transferred into storage buffer (50 mM Tris/HCl pH 7.5, 200 mM NaCl, 0.1 mM ethylene glycol-bis(2-aminoethylether)-N,N,N′,N′-tetraacetic acid (EGTA, Aldrich, Germany, cat. no. 23, 453-2), 1 mM DTT, 10% (w/v) glycerol, 0.5 M sucrose (Sigma, Germany, cat. no. S0389) by gel filtration on a PD10 desalting column (Amersham, Sweden, cat. no. 17-0851-01). Aliquots were shock frozen in liquid nitrogen and stored at −80° C.
Activation of Mnk1 and Mnk2a was at a concentration of 2.5 μM of either purified GST-Mnk1 or GST-Mnk2a by incubation with 150 nM pre-activated NHis-ERK2 (see ERK2 assay for preparation) and 50 μM adenosine triphosphate (ATP, Sigma, cat. no. A2699) in a buffer comprising 20 mM N-(2-hydroxyethyl)piperazine-N′-(2-ethanesulfonic acid) (HEPES, Fluka, Germany, cat. no 54459)/potassium hydroxide (KOH, Roth, Germany, cat. no 6751.1) pH 7.4, 10 mM magnesium chloride (MgCl2, Sigma, Germany, cat. no. M2670), 0.25 mM DTT, 0.05% (w/v) polyoxyethylene 20 stearylether (Brij 78, Sigma, Germany, cat. no. P4019) (HMDB buffer) for 45 min at 30° C. […]
(In general: Polarisation of emitted light reports the rotation of a fluorescent probe.)
Turning to `Cc1c(Cl)sc2ncnc(Nc3ccc(F)cc3OC(C)CNS(C)(=O)=O)c12` (stereo not shown) [Example 15, N-{2-[2-(6-Chloro-5-methyl-thieno[2,3-d]pyrimidin-4-ylamino)-5-fluoro-phenoxy]-propyl}-methanesulfonamide], the IC50 (commonly the concentration at which inhibition is half-maximal) worked out at 9 nM.
On the same count and under the same terms, for `Cc1c(Cl)sc2ncnc(Nc3ccc(F)cc3OC(C)CN)c12` (stereo not shown) [Example 13, [2-(2-Amino-1-methyl-ethoxy)-4-fluoro-phenyl]-(6-chloro-5-methyl-thieno[2,3-d]pyrimidin-4-yl)-amine trifluoroacetate] the value was 10 nM.
Consider `Cc1c(Br)sc2ncnc(Nc3ccc(F)cc3OC(C)CN)c12` (stereo not shown) [Example 8, [2-(2-Amino-1-methyl-ethoxy)-4-fluoro-phenyl]-(6-bromo-5-methyl-thieno[2,3-d]pyrimidin-4-yl)-amine], for which the half-maximal inhibitory concentration (IC50) came to 11 nM.
Turning to `CCOc1cc(C(N)=O)ccc1Nc1ncnc2sc(Cl)c(C)c12` [Example 16.2, 4-(6-Chloro-5-methyl-thieno[2,3-d]pyrimidin-4-ylamino)-3-ethoxy-benzamide], the IC50 is 16 nM.
On the same count and under the same terms, the figure for `Cc1c(Br)sc2ncnc(Nc3ccc(F)cc3OC(C)C)c12` [Example 18, (6-Bromo-5-methyl-thieno[2,3-d]pyrimidin-4-yl)-(4-fluoro-2-isopropoxy-phenyl)-amine] is 58 nM.
On the same count and under the same terms, the figure for `Cc1c(Br)sc2ncnc(Nc3ccc(F)cc3OC(C)CNS(C)(=O)=O)c12` (stereo not shown) [Example 10, N-{2-[2-(6-Bromo-5-methyl-thieno[2,3-d]pyrimidin-4-ylamino)-5-fluoro-phenoxy]-propyl}-methanesulfonamide] is 8 nM.

For the next test, the system named is Mnk2 (Mnk2a or Mnk2b) or Mnk1.
Assay: not given
As to conditions: cell culture cells transfected with Mnk2 (Mnk2a or Mnk2b) or Mnk1; cited from earlier work.
With `Nc1ncnc2n[nH]c(Nc3ccc(F)cc3)c12` [CGP57380], the “reduction of phosphorylated eIF4E” value is “strong reduction”.
